How the values were obtained:
[1] = system: MCF-7 (HER2 negative) cell line; assay: Inhibition of proliferation of MCF-7 cell line in complete media; type: cell-based; conditions: Homo sapiens, MCF7, FIG. 1, read-out: IC50 for inhibition of growth
Procedure: (§1) Poziotinib was purchased from a commercial source (Selleck Chem catalog number S7358). Assays were conducted using standard techniques that are known in the literature including those described in US Patent Publication U.S. 2015/0342909.
(§2) Poziotinib was tested for inhibition of proliferation of the MCF-7 (HER2 negative) cell line in complete media. The IC50 for inhibition of growth was determined to be approximately 3 μM (FIG. 1). Poziotinib was tested for inhibition of CYP2C8 supersome-mediated EET biosynthesis. The IC50 for inhibition of EET synthesis was determined to be approximately 10 μM (FIG. 2). Poziotinib was tested for inhibition of CYP3A4 supersome-mediated EET biosynthesis. The IC50 for inhibition of EET synthesis was determined to be approximately 10 µM (FIG. 2).

[2] = target: T1, CYP2C8 (Homo sapiens, UniProt P10632); assay: Inhibition of CYP2C8 supersome-mediated EET biosynthesis; type: biochemical; conditions: FIG. 2, read-out: IC50 for inhibition of EET synthesis
T1 sequence (P10632 1-490): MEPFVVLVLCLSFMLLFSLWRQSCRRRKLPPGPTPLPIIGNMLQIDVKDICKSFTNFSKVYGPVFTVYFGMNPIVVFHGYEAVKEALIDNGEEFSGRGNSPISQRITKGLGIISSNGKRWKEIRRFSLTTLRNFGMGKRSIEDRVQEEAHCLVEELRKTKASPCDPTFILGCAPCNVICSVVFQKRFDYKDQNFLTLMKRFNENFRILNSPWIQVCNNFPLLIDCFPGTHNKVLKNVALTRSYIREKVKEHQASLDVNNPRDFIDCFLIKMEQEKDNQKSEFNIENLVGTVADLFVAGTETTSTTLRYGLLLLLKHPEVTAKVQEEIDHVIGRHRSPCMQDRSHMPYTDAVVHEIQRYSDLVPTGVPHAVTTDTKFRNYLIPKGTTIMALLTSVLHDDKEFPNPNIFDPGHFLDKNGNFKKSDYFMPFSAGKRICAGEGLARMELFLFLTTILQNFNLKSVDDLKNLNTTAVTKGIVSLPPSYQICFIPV
Procedure: as §1, §2

[3] = target: CYP3A4 (Homo sapiens, UniProt P08684); assay: Inhibition of CYP3A4 supersome-mediated EET biosynthesis; type: biochemical; conditions: CYP3A4 supersomes, read-out: IC50 for inhibition of EET synthesis
Procedure: as §1, §2

[4] = system: MCF7; assay: Measurement of OCR and ECAR (XF Extracellular Flux Analyzer); type: cell-based; conditions: MCF7, poziotinib 40 and 80 uM, endpoint A+270 minutes; P=0.0286 (40 uM), P=0.0001 (80 uM); normalized to 6th measurement DMSO control, n=5, FIG. 4
Procedure: Cells were maintained in growth medium consisting of 10% FBS at 37° C. with 5% CO2 and seeded at 30,000 cells per well in XF24-well cell culture microplates (Seahorse Bioscience, North Billirica, Ma.). Concentrated stocks of poziotinib were prepared in DMSO. Poziotinib was diluted to 10× working concentration in XF assay medium (a non-buffered medium including 2 mM L-glutamine but no sodium bicarbonate (buffering agent), glucose, or sodium pyruvate). Assays were performed in the XF Extracellular Flux Analyzer (Seahorse Bioscience), which measures uptake and excretion of metabolic end products in real time. Oxygen consumption rate (OCR) and extracellular acidification rate (ECAR) were measured using an XF Assay Kit. OCR is reported in pmoles/minute and ECAR in mpH/minute. Before analysis, the cells were switched from culture medium to XF assay medium. After baseline measurements, 75 μl of poziotinib prepared in assay medium was injected into each well to reach final working concentrations. After addition of poziotinib, OCR and ECAR were measured at 18-minute intervals. There were 5 replicates performed for each data point.
OCR was reduced by poziotinib vs. DMSO and was significant at the endpoint of A+270 minutes. […] Results are normalized to the 6th measurement DMSO control and expressed as mean ±S.D. (n=5) (FIG. 4).

[5] = target: EGFR type I kinase (Homo sapiens, UniProt P00533); conditions: as described in WO2008/150118; cited from earlier work
[6] = system: various cancer cell lines including colon/rectal, skin, lung and the breast cancer cell line SK-BR3; conditions: lung and SK-BR3 (overexpresses HER2) cell lines, WO2008/150118; cited from earlier work

Sequence of CYP3A4 (P08684 whole entry): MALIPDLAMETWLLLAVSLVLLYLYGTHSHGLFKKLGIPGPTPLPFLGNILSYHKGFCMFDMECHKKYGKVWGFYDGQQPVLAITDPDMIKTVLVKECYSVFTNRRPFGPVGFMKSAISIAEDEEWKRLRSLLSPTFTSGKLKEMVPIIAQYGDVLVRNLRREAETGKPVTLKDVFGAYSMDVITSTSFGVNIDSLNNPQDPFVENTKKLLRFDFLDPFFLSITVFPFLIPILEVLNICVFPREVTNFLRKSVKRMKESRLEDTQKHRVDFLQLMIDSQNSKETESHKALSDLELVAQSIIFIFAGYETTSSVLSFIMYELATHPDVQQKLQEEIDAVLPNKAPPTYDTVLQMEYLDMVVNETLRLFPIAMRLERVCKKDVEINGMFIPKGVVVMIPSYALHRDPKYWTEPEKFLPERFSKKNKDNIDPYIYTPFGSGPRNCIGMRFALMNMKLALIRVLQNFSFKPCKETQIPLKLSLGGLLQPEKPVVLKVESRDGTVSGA
Sequence of EGFR type I kinase (P00533 25-1210): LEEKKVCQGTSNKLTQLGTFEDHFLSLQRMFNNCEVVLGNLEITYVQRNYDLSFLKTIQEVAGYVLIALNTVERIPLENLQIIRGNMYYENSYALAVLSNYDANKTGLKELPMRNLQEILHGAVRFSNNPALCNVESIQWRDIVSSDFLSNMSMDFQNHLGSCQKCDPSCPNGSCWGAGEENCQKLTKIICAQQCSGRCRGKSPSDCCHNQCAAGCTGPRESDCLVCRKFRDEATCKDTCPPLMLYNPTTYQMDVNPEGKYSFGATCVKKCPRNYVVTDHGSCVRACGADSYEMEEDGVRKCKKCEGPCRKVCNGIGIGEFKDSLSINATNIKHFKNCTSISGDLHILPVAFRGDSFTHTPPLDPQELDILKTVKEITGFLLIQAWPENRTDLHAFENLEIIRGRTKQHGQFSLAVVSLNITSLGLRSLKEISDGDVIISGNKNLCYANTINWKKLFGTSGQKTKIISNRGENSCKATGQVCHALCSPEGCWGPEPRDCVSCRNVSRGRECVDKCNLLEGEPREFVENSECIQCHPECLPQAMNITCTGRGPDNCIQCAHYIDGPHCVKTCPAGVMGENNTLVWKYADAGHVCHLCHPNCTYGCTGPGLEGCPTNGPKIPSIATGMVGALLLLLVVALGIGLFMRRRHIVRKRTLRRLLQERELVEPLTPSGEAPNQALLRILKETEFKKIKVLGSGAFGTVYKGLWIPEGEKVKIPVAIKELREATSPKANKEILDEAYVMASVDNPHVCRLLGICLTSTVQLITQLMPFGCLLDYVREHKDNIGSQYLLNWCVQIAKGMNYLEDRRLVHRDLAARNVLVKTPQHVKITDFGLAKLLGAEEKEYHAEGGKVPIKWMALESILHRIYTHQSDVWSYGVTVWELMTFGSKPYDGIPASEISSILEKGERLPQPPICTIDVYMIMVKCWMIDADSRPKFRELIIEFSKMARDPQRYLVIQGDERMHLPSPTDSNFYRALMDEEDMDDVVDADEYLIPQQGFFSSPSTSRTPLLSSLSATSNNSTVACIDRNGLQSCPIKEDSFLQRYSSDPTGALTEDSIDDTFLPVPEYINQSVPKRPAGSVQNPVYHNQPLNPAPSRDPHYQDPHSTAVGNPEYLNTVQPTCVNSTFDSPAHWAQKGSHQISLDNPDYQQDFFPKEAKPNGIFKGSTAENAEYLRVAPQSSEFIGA

- IC50 [1]: ~3000 nM
- IC50 [2]: ~10 µM
- IC50 [3]: ~10 µM
Structure (SMILES): C=CC(=O)N1CCC(Oc2cc3c(Nc4ccc(Cl)c(Cl)c4F)ncnc3cc2OC)CC1 [Poziotinib, 1-(4-((4-((3,4-dichloro-2-fluorophenyl)amino)-7-methoxyquinazolin-6-yl)oxy)piperidin-1-yl)prop-2-en-1-one]
- Oxygen consumption rate (OCR) vs. DMSO [4]: reduced
- Inhibition of EGFR type I kinase [5]: inhibit EGFR type I kinase
- Inhibition of cell growth [6]: inhibit cell growth

From US20180333415A1, “THERAPEUTIC METHODS” (REGENTS OF THE UNIVERSITY OF MINNESOTA, priority 2017, published 2018)
